Here are results for 16 compounds from US8586579B2, “Anellated pyridine compounds” (Hoffmann-La Roche Inc., priority 2010, dated 2013).

SMILES strings stand for the structures. Like-named read-outs stand apart in the source and are kept apart here.

Data set [1] deals with human D3 receptor (Homo sapiens (Human), UniProt P35462). Briefly: Radioligand binding assay, [3H]-spiperone, human D3 receptor. As to conditions: membranes of HEK293 EBNA cells expressing human D3; 0.5 nM [3H]-spiperone. The procedure: (§1) HEK293 EBNA cells were transiently transfected with expression plasmids encoding for the human D2 or D3 or for the human 5-HT2A receptor, respectively. The cells were harvested 48 h post-transfection, washed three times with cold PBS and stored at −80° C. prior to use. The pellet was suspended in cold 50 mM Tris-HCl buffer comprising 10 mM EDTA (pH 7.4) and was homogenized with a Polytron (Kinematica AG, Basel, Switzerland) for 20-30 sec at 12.000 rpm. After centrifugation at 48.000×g for 30 min at 4° C., the pellet was resuspended in cold 10 mM Tris-HCl buffer comprising 0.1 mM EDTA (pH 7.4), homogenized, and centrifuged as above. This pellet was further resuspended in a smaller volume of ice cold 10 mM Tris-HCl buffer comprising 0.1 mM EDTA (pH 7.4) and homogenized with a Polytron for 20-30 sec at 12.000 rpm. The protein content of this homogenate was determined with the Bio-Rad (Bradford) Protein Assay (Biorad Laboratories GmbH, München, Germany) according to the instructions of the manufacturer using gamma globulin as the standard. This homogenate was stored at −80° C. in aliquots and thawed immediately prior to use.
human D3 receptor, sequence (P35462 whole entry): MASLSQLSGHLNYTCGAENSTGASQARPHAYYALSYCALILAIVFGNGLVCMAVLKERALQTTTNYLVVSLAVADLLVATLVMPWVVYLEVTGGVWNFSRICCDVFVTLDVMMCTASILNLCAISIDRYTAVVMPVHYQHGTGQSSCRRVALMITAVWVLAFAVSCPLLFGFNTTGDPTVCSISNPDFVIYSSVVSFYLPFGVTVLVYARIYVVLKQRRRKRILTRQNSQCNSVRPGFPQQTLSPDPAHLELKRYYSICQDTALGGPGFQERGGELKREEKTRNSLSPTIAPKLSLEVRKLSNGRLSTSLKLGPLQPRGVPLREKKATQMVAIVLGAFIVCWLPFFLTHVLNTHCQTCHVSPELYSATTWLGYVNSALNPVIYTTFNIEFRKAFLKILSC
(§2) Aliquots of membrane preparations were thawed at RT, resuspended in assay buffer (D2, D3: 50 mM Tris-HCl, 120 mM NaCl, 5 mM MgCl2, 1 mM EDTA, 5 mM KCl, 1.5 mM CaCl2, pH=7.4; 5-HT2A: 50 mM Tris-HCl, 10 mM MgCl2, 1 mM EGTA, pH=7.4), homogenized with a Polytron for 20-30 sec at 12.000 rpm and adjusted to a final concentration of approximately 7.5 μg protein/well (D2, D3) and 15 μg protein/well (5-HT2A), respectively.
(§3) The binding affinity (Ki) of the compounds was determined using radioligand binding. Membranes were incubated in a total volume of 200 μl with a fixed concentration of radioligand (final concentration approximately 0.7 nM [^3H]-spiperone for D2, 0.5 nM [^3H]-spiperone for D3, and 1.1 nM [^3H]-ketanserin for 5-HT2A) and ten concentrations of test compound in ranging between 10 μM-0.1 nM for 1 h at RT. […] The nonspecific binding was determined with equally composed reaction mixtures in the presence of 10 μM unlabelled spiperone. Per well 45 μl of Microscint 40 (Perkin Elmer, Schwerzenbach, Switzerland) was added, plates for sealed, shaken for 20 min and counted for 3 min on a Topcount Microplate Scintillation Counter (Can berra Packard SA, Zürich, Switzerland) with quenching correction.
(§4) The CPM value for each duplicate of a concentration of competing compound was averaged (y1), then the % specific binding was calculated according to the equation (((y1−non-specific)/(total binding−non-specific))×100). Graphs were plotted with the % specific binding using XLfit, a curve fitting program that iteratively plots the data using Levenberg-Marquardt algorithm. The single site competition analysis equation used was y=A+((B−A)/(1+((x/C)D))), where y is the % specific binding, A is the minimum y, B is the maximum y, C is the IC50, x is the log 10 of the concentration of the competing compound and D is the slope of the curve (the Hill Coefficient). […] The affinity constant (K) was calculated using the Cheng-Prusoff equation Ki=(IC50/1+([L]/Kd), where [L] is the concentration of radioligand and Kd is the dissociation constant of the radioligand at the receptor as determined by the saturation isotherm.

In data set [2] the target is human 5-HT2A receptor (Homo sapiens (Human), UniProt P28223). Briefly: Radioligand binding assay, [3H]-ketanserin, human 5-HT2A receptor. The procedure: as §1, §2, §3, §4
human 5-HT2A receptor, sequence (P28223 whole entry): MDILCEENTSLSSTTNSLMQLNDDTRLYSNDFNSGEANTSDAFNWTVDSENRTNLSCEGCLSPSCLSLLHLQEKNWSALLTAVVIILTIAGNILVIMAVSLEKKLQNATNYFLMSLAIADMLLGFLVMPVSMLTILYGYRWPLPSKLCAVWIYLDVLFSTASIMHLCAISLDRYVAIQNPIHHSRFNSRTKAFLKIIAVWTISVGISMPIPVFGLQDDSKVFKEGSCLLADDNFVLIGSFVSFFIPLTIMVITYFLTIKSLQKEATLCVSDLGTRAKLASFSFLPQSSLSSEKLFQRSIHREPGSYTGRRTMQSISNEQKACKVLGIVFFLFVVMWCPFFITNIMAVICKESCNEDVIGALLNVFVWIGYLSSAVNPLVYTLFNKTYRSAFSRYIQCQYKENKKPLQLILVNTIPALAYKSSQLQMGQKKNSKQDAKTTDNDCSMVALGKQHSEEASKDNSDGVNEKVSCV
Data set [3] has as its target human D2 receptor (Homo sapiens (Human), UniProt P14416). Description: Radioligand binding assay, [3H]-spiperone, human D2 receptor. As to conditions: membranes of HEK293 EBNA cells expressing human D2; 0.7 nM [3H]-spiperone. The procedure: as §1, §2, §3
as §4, with “algorithm.” for “algorithm. The single site competition analysis equation used was y=A+((B−A)/(1+((x/C)D))), where y is the % specific binding, A is the minimum y, B is the maximum y, C is the IC50, x is the log 10 of the concentration of the competing compound and D is the slope of the curve (the Hill Coefficient).”

[4] abbreviates: membranes of HEK293 EBNA cells expressing human 5-HT2A, 1.1 nM [3H]-ketanserin.

human D2 receptor, sequence (P14416 whole entry): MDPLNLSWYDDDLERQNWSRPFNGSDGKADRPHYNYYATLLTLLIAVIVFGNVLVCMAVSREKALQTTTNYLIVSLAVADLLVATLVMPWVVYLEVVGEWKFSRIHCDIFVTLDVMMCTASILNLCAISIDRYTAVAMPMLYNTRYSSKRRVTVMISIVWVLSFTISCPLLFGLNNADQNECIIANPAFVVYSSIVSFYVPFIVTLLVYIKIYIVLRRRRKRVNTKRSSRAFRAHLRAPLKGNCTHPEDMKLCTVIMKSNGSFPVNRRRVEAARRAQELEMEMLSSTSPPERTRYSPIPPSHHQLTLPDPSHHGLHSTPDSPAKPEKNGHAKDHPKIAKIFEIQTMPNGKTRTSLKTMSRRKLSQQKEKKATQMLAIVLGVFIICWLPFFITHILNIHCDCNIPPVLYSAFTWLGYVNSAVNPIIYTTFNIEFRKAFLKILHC

As to `O=S(=O)(N[C@H]1CC[C@H](CCN2CCN(c3nccc4c3CCO4)CC2)CC1)c1ccccc1` [Example 138, trans-N-(4-{2-[4-(2,3-Dihydro-furo[3,2-c]pyridin-4-yl)-piperazin-1-yl]-ethyl}-cyclohexyl)-benzenesulfonamide], the melting point (commonly the temperature, or range, at which the solid turns liquid) turned out to be 168.5 °C. The Ki (in general, a dissociation constant, usually derived from enzyme kinetics or from competition with a known ligand) in data set [1] turned out to be 15.5 nM. Also, the Ki in data set [2] (setting [4]) came to 70.5 nM. Besides, in data set [3], the Ki worked out at 243 nM.

For `CCC(=O)N[C@H]1CC[C@H](CCN2CCN(c3nccc4c3CCO4)CC2)CC1` [Example 36, trans-N-(4-{2-[4-(2,3-Dihydrofuro[3,2-c]pyridin-4-yl)-piperazin-1-yl]-ethyl}-cyclohexyl)-propionamide], the melting point was determined as 192.5 °C. The Ki in data set [1] was determined as 9.7 nM. Moreover, the Ki in data set [2] (setting [4]) was found to be 13.3 nM. The Ki in data set [3] stood at 813 nM.

The compound `CCC(C)C(=O)N[C@H]1CC[C@H](CCN2CCN(c3nccc4c3CCO4)CC2)CC1` (mixture of isomers) [Example 76, trans-N-(4-{2-[4-(2,3-Dihydro-furo[3,2-c]pyridin-4-yl)-piperazin-1-yl]-ethyl}-cyclohexyl)-rac-2-methyl-butyramide] displayed a melting point of 205.5 °C. The Ki in data set [1] is 25.4 nM. Further, the Ki in data set [2] (setting [4]) turned out to be 13.2 nM. Further, the Ki in data set [3] was 709 nM.

Consider `COCCC(=O)N[C@H]1CC[C@H](CCN2CCN(c3nccc4c3CCO4)CC2)CC1` [Example 35, trans-N-(4-{2-[4-(2,3-Dihydrofuro[3,2-c]pyridin-4-yl)-piperazin-1-yl]-ethyl}-cyclohexyl)-3-methoxypropanamide], for which the melting point came to 246.5 °C. Moreover, the Ki in data set [1] was found to be 17.4 nM. Further, the Ki in data set [2] (setting [4]) stood at 24.1 nM. Moreover, the Ki in data set [3] came to 1490 nM.

`O=C(N[C@H]1CC[C@H](CCN2CCN(c3nccc4c3CCO4)CC2)CC1)C1CC1` [Example 63, Cyclopropanecarboxylic acid trans-(4-{2-[4-(2,3-dihydro-furo[3,2-c]pyridin-4-yl)-piperazin-1-yl]-ethyl}-cyclohexyl)-amide] displayed a melting point of 213 °C. Moreover, the Ki in data set [1] is 18.5 nM. Besides, the Ki in data set [2] (setting [4]) worked out at 11.1 nM. Besides, in data set [3], the Ki was 486 nM.

The compound `O=C(N[C@H]1CC[C@H](CCN2CCN(c3nccc4c3CCO4)CC2)CC1)C1CC1(F)F` (stereo partly drawn) [Example 74, trans-2,2-Difluoro-cyclopropanecarboxylic acid (4-{2-[4-(2,3-dihydro-furo[3,2-c]pyridin-4-yl)-piperazin-1-yl]-ethyl}-cyclohexyl)-amide] returned a melting point of 184.5 °C. Also, the Ki in data set [1] is 23.8 nM. In addition, the Ki in data set [2] (setting [4]) stood at 17.3 nM. Moreover, in data set [3], the Ki amounted to 438 nM.

`CC(C)(C)C(=O)N[C@H]1CC[C@H](CCN2CCN(c3nccc4c3CCO4)CC2)CC1` [Example 70, trans-N-(4-{2-[4-(2,3-Dihydro-furo[3,2-c]pyridin-4-yl)-piperazin-1-yl]-ethyl}-cyclohexyl)-2,2-dimethyl-propionamide] returned a melting point of 185 °C. In data set [1], the Ki stood at 59.2 nM. In addition, in data set [2], the Ki is 9.4 nM. Also, in data set [3], the Ki is 524 nM.

Turning to `COCCC(=O)N[C@H]1CC[C@H](CCN2CCN(c3nc(C)cc4c3CCO4)CC2)CC1` [Example 103, trans-3-Methoxy-N-(4-{2-[4-(6-methyl-2,3-dihydro-furo[3,2-c]pyridin-4-yl)-piperazin-1-yl]-ethyl}-cyclohexyl)-propionamide], the melting point is 178.5 °C. Also, the Ki in data set [1] was 11.8 nM. Besides, the Ki in data set [2] (setting [4]) is 255 nM. Also, in data set [3], the Ki stood at 1490 nM.

Compound `O=C(N[C@H]1CC[C@H](CCN2CCN(c3nccc4c3CCO4)CC2)CC1)c1ccc2c(c1)OCO2` [Example 121, Benzo[1,3]dioxole-5-carboxylic acid trans-(4-{2-[4-(2,3-dihydro-furo[3,2-c]pyridin-4-yl)-piperazin-1-yl]-ethyl}-cyclohexyl)-amide] registered a melting point of 243.5 °C. Further, the Ki in data set [1] was 21.8 nM. Besides, the Ki in data set [2] (setting [4]) was 17.6 nM. Also, the Ki in data set [3] came to 3370 nM.

`O=C(CC1CCOCC1)N[C@H]1CC[C@H](CCN2CCN(c3nccc4c3CCO4)CC2)CC1` [Example 34, trans-N-(4-{2-[4-(2,3-Dihydrofuro[3,2-c]pyridin-4-yl)-piperazin-1-yl]-ethyl}-cyclohexyl)-2-(tetrahydro-2H-pyran-4-yl)-acetamide] showed a melting point of 233 °C. Moreover, the Ki in data set [1] worked out at 24.9 nM. For the same compound, in data set [2] (setting [4]), the Ki amounted to 20.1 nM. For the same compound, the Ki in data set [3] worked out at 869 nM.

The compound `O=C(N[C@H]1CC[C@H](CCN2CCN(c3nccc4c3CCO4)CC2)CC1)c1ccc(Cl)cc1` [Example 46, trans-4-Chloro-N-(4-{2-[4-(2,3-dihydro-furo[3,2-c]pyridin-4-yl)-piperazin-1-yl]-ethyl}-cyclohexyl)-benzamide] came in with a melting point of 226.5 °C. For the same compound, the Ki in data set [1] was 13.2 nM. Besides, the Ki in data set [2] is 14.8 nM. Further, the Ki in data set [3] was 289 nM.

With `CO[C@@H](C)C(=O)N[C@H]1CC[C@H](CCN2CCN(c3nccc4c3CCO4)CC2)CC1` [Example 137, trans-(S)—N-(4-{2-[4-(2,3-Dihydro-furo[3,2-c]pyridin-4-yl)-piperazin-1-yl]-ethyl}-cyclohexyl)-2-methoxy-propionamide], the melting point was found to be 158.5 °C. Also, the Ki in data set [1] came to 252 nM. In data set [2] (setting [4]), the Ki came out at 20.1 nM. Also, in data set [3], the Ki amounted to 788 nM.

`O=C(C[C@@H](O)C(F)(F)F)N[C@H]1CC[C@H](CCN2CCN(c3nccc4c3CCO4)CC2)CC1` [Example 88, trans-(R)—N-(4-{2-[4-(2,3-Dihydro-furo[3,2-c]pyridin-4-yl)-piperazin-1-yl]-ethyl}-cyclohexyl)-4,4,4-trifluoro-3-hydroxy-butyramide] returned a melting point of 207 °C. In addition, the Ki in data set [1] came out at 19.7 nM. In addition, in data set [2], the Ki is 33.1 nM. Further, the Ki in data set [3] amounted to 732 nM.

`N#CCC(=O)N[C@H]1CC[C@H](CCN2CCN(c3nccc4c3CCO4)CC2)CC1` [Example 59, trans-2-Cyano-N-(4-{2-[4-(2,3-dihydro-furo[3,2-c]pyridin-4-yl)-piperazin-1-yl]-ethyl}-cyclohexyl)-acetamide] came in with a melting point of 188 °C. The Ki in data set [1] came out at 7.74 nM. In addition, the Ki in data set [2] is 15.7 nM. Also, the Ki in data set [3] was determined as 702 nM.

`O=C(CC1COCCO1)N[C@H]1CC[C@H](CCN2CCN(c3nccc4c3CCO4)CC2)CC1` (mixture of isomers) [Example 37, trans-N-(4-{2-[4-(2,3-Dihydrofuro[3,2-c]pyridin-4-yl)-piperazin-1-yl]-ethyl}-cyclohexyl)-2-(rac-1,4-dioxan-2-yl)-acetamide] showed a melting point of 186 °C. The Ki in data set [2] (setting [4]) was 9.7 nM. Also, the Ki in data set [3] was found to be 1470 nM.

In the case of `O=C(C[C@@H]1COCCO1)N[C@H]1CC[C@H](CCN2CCN(c3nccc4c3CCO4)CC2)CC1` [Example 61, trans-N-(4-{2-[4-(2,3-Dihydro-furo[3,2-c]pyridin-4-yl)-piperazin-1-yl]-ethyl}-cyclohexyl)-2-(R)-[1,4]dioxan-2-yl-acetamide], the melting point came to 193.5 °C. Besides, in data set [2] (setting [4]), the Ki was 11.8 nM. The Ki in data set [3] was 1120 nM.
